# Results filed as inconclusive are left out.
# Test system: LMP1-induced NF-kappaB luciferase reporter cells, luminescence
# Experiment: LMP1-induced NF-kB luciferase signal inhibition – cell-based, EBV LMP1, dry powder, set 2, dose response (AID 624361)
row,Structure (SMILES),AC35 [µM]
1,Cc1cc(C(=O)Nc2ccc3c(c2)C(=O)N(C)[C@H]2CC[C@@H](CC(=O)NCc4ccc(-c5ccccc5)cc4)O[C@H]2CO3)no1,14.2
2,COc1ccccc1C#Cc1ccc2c(c1)O[C@H](CN(C)Cc1cccnc1)[C@H](C)CN([C@@H](C)CO)S2(=O)=O,18.3
3,COc1ccc(S(=O)(=O)N(C)C[C@@H]2Oc3ncc(/C=C/c4ccccc4)cc3C(=O)N([C@@H](C)CO)C[C@H]2C)cc1,28.6
4,N#C[C@@H]1[C@H](c2ccc(C#Cc3ccccc3F)cc2)[C@@H](CO)N1C(=O)c1cccnc1,0.9
5,COc1ccc(S(=O)(=O)N(C)C[C@H]2Oc3ncc(/C=C/c4ccccc4)cc3C(=O)N([C@H](C)CO)C[C@@H]2C)cc1,20.5
6,COc1ccccc1C#Cc1ccc([C@H]2[C@H](C#N)N(C(=O)C3CC3)[C@H]2CO)cc1,20
7,COc1cccc(C#Cc2ccc([C@@H]3[C@H](C#N)N(C(=O)c4ccccn4)[C@H]3CO)cc2)c1,26.1
8,O=C(C[C@H]1C[C@H]2c3cc(NC(=O)c4ccc5c(c4)OCO5)ccc3O[C@H]2[C@H](CO)O1)NCc1ccc(Oc2ccccc2)cc1,20.7
9,O=C(Nc1ccc(C(F)(F)F)cc1)Nc1ccc2c(c1)[C@@H]1C[C@H](CC(=O)N3CCc4ccccc4C3)O[C@H](CO)[C@@H]1O2,8.02
10,C[C@H]1CN([C@@H](C)CO)C(=O)c2cc(C#Cc3ccccc3F)cnc2O[C@@H]1CN(C)C(=O)C1CCCCC1,24.6
11,Cc1noc(C)c1S(=O)(=O)Nc1ccc2c(c1)C(=O)N([C@@H](C)CO)C[C@H](C)[C@@H](CN(C)Cc1ccc(C(F)(F)F)cc1)OCCCC[C@H](C)O2,30.3
12,COc1cccc(S(=O)(=O)N(C)C[C@H]2Oc3cc(C4=CCCCC4)ccc3S(=O)(=O)N([C@H](C)CO)C[C@H]2C)c1,33
13,Cc1ccc(S(=O)(=O)N(C)C[C@H]2Oc3cc(C#Cc4ccncc4)ccc3S(=O)(=O)N([C@@H](C)CO)C[C@H]2C)cc1,11.5
14,Cc1noc(C)c1S(=O)(=O)Nc1ccc2c(c1)C(=O)N([C@@H](C)CO)C[C@@H](C)[C@H](CN(C)Cc1ccc(C(F)(F)F)cc1)OCCCC[C@H](C)O2,25.6
15,O=C(C[C@@H]1CC[C@H]2[C@@H](COC[C@H](O)CN2Cc2ccc(Oc3ccccc3)cc2)O1)N1CCc2ccccc2C1,25.7
16,Cc1noc(C)c1S(=O)(=O)Nc1ccc2c(c1)C(=O)N([C@@H](C)CO)C[C@@H](C)[C@H](CN(C)Cc1ccc(C(F)(F)F)cc1)OCCCC[C@@H](C)O2,31.7
17,O=C(Nc1ccc(C(F)(F)F)cc1)Nc1ccc2c(c1)[C@H]1C[C@H](CC(=O)N3CCc4ccccc4C3)O[C@H](CO)[C@H]1O2,24.9

row,Structure (SMILES),AC35 [µM]
1,C[C@@H]1CN([C@@H](C)CO)S(=O)(=O)c2ccc(C#Cc3ccncc3)cc2O[C@H]1CN(C)C(=O)Nc1ccc2c(c1)OCO2,24
2,O=C(C[C@@H]1CC[C@@H]2[C@H](COC[C@H](O)CN2Cc2ccc3c(c2)OCO3)O1)Nc1ccc(-c2ccccc2)cc1,7.79
3,Cc1noc(C)c1S(=O)(=O)Nc1ccc2c(c1)C(=O)N([C@@H](C)CO)C[C@H](C)[C@@H](CN(C)Cc1ccc(C(F)(F)F)cc1)OCCCC[C@@H](C)O2,21.5
4,Cc1noc(C)c1S(=O)(=O)Nc1ccc2c(c1)C(=O)N([C@H](C)CO)C[C@@H](C)[C@H](CN(C)Cc1ccc(C(F)(F)F)cc1)OCCCC[C@H](C)O2,31.2
5,Cc1cc(C(=O)Nc2ccc3c(c2)C(=O)N(C)[C@@H]2CC[C@@H](CC(=O)NCc4ccc(-c5ccccc5)cc4)O[C@H]2CO3)no1,4.76
6,C[C@@H]1CN([C@H](C)CO)S(=O)(=O)c2ccc(C#C[C@@H](C)O)cc2O[C@H]1CN(C)Cc1ccc(-c2ccccc2)cc1,22.4
7,C[C@@H]1CN([C@H](C)CO)C(=O)Cc2cc(NC(=O)Cc3ccccc3)ccc2O[C@@H]1CN(C)Cc1ccc(C(F)(F)F)cc1,31.5
8,CC(C)c1ccc(NC(=O)C[C@H]2CC[C@H]3[C@@H](COc4ccc(NC(=O)Nc5ccc(F)c(F)c5)cc4C(=O)N3C)O2)cc1,18.1
9,C[C@H](CO)N1C[C@H](C)[C@@H](CN(C)S(=O)(=O)c2cccc(F)c2)Oc2ncc(C#CC3CCCCC3)cc2C1=O,35.3
10,Cc1noc(C)c1S(=O)(=O)Nc1ccc2c(c1)C(=O)N([C@@H](C)CO)C[C@H](C)[C@H](CN(C)Cc1ccc(C(F)(F)F)cc1)OCCCC[C@H](C)O2,33.4
11,COc1cccc(S(=O)(=O)N(C)C[C@@H]2Oc3cc(C4=CCCCC4)ccc3S(=O)(=O)N([C@@H](C)CO)C[C@@H]2C)c1,24
12,O=C(C[C@@H]1CC[C@@H]2[C@H](COC[C@@H](O)CN2Cc2ccc(Oc3ccccc3)cc2)O1)N1CCc2ccccc2C1,17.8
13,Cc1noc(C)c1S(=O)(=O)Nc1ccc2c(c1)C(=O)N([C@H](C)CO)C[C@@H](C)[C@@H](CN(C)Cc1ccc(C(F)(F)F)cc1)OCCCC[C@H](C)O2,26.4
14,O=C(Nc1ccc(C(F)(F)F)cc1)Nc1ccc2c(c1)[C@@H]1C[C@H](CC(=O)N3CCc4ccccc4C3)O[C@@H](CO)[C@@H]1O2,9.85
15,C[C@H](CO)N1C[C@H](C)[C@H](CN(C)C(=O)NC2CCCCC2)Oc2cc(/C=C/c3ccccc3)ccc2S1(=O)=O,24
16,O=C(C[C@@H]1C[C@H]2c3cc(NS(=O)(=O)c4ccc(F)cc4)ccc3O[C@H]2[C@@H](CO)O1)NCc1ccc(Oc2ccccc2)cc1,14.7
